Non-standard residues stand in square brackets, D forms with d. Residues, ends and D or L forms follow the SMILES beside them. ξ: configuration not given here. *: point of attachment. hCys = N[C@@H](CCS)C(=O)O; Dap = NC[C@H](N)C(=O)O; ξDap = NCC(N)C(=O)O; ClAc = O=C(CCl)*

Common to all, as to experiment: DELFIA
For experiment [1], the target named is Isoform Bcl-X(L) of Bcl-2-like protein 1 (Bcl-xL) (Homo sapiens, UniProt Q07817). The method, then: (§1) After 1 h of incubation at RT to allow the immunoreaction to complete, a second washing step allowed removal of the unbound protein in complex with Eu antibodies if displaced by a test compound. […] Each well received a final DMSO concentration equal to 1%. Protein, peptide, and antibody solutions were prepared in DELFIA assay buffer (PerkinElmer).
Sequence of Isoform Bcl-X(L) of Bcl-2-like protein 1 (Bcl-xL) (Q07817 whole entry G70A, canonical isoform): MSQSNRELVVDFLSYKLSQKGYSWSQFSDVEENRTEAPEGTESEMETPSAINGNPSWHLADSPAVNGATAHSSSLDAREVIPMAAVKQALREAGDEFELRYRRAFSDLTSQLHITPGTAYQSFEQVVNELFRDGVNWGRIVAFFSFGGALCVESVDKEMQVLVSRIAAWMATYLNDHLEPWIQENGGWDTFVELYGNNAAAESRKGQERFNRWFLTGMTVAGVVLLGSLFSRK

Experiment [2] addresses Apoptosis regulator Bcl-2 (Homo sapiens, UniProt P10415). As for the experimental part: as §1
Experiment [3] deals with T1, Bcl-2-related protein A1 [1-149] (Human, UniProt Q16548).
T1 construct: 1-149
T1 sequence (Q16548 whole entry): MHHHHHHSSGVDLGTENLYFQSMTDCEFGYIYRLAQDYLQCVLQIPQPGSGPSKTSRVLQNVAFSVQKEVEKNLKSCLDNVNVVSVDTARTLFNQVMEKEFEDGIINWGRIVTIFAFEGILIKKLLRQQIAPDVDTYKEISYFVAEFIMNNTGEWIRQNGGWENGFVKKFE
The method, then: as §1

Experiment [4] concerns the target Induced myeloid leukemia cell differentiation protein Mcl-1 (Homo sapiens, UniProt Q07820). As for the experimental part:
as §1

Sequence of Induced myeloid leukemia cell differentiation protein Mcl-1 (Q07820 whole entry): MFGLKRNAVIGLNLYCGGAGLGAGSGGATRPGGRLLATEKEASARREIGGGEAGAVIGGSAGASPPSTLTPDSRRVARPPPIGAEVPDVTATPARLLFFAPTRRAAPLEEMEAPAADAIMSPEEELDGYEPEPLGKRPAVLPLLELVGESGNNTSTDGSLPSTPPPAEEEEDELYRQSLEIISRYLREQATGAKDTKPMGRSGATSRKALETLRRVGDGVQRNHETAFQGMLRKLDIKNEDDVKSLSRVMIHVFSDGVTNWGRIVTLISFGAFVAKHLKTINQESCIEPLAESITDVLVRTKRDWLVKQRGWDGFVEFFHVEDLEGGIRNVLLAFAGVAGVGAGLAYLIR
Sequence of Apoptosis regulator Bcl-2 (P10415 whole entry): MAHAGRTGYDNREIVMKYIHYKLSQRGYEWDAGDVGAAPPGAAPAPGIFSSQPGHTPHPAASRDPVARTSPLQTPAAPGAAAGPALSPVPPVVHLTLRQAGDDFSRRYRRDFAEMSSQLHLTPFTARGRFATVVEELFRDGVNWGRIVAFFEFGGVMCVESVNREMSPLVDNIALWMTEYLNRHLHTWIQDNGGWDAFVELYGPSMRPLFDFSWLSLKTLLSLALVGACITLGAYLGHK

Turning to `CC[C@H](C)[C@H](NC(=O)[C@H](CCCCN)NC(=O)[C@H](CCCNC(=N)N)NC(=O)[C@H](CC(C)C)NC(=O)[C@H](CCC(N)=O)NC(=O)[C@H](C)NC(=O)[C@H](C)NC(=O)[C@H](Cc1ccccc1)NC(=O)[C@H](CCC(=O)O)NC(=O)[C@@H]1CCCN1C(=O)[C@@H]1CCCN1C(=O)[C@H](CC(C)C)NC(=O)[C@H](CCC(=O)O)NC(=O)[C@H](C)NC(C)=O)C(=O)NCC(=O)N[C@@H](CC(=O)O)C(=O)N[C@@H](CCCCN)C(=O)N[C@H](C(=O)N[C@@H](Cc1ccc(O)cc1)C(=O)N[C@@H](CS)C(N)=O)C(C)C`, the concentration for half-maximal inhibition (IC50) in experiment [1], in experiment [2] and in experiment [3] was > 1000 nM in each case.

As to `CC[C@H](C)[C@H](NC(=O)[C@H](CCCNC(=N)N)NC(=O)[C@H](CCCNC(=N)N)NC(=O)[C@H](CC(C)C)NC(=O)[C@H](CCC(N)=O)NC(=O)[C@H](C)NC(=O)[C@H](CS)NC(=O)[C@H](CCC(=O)O)NC(=O)[C@H](CC(=O)O)NC(=O)[C@H](CCCCN)NC(=O)[C@H](CC(C)C)NC(=O)[C@H](CC(=O)O)NC(=O)[C@H](C)NC(=O)[C@@H]1CCCN1C(C)=O)C(=O)NCC(=O)N[C@@H](CC(=O)O)C(=O)N[C@@H](CCCCN)C(=O)N[C@H](C(=O)N[C@@H](CC(N)=O)C(=O)N[C@@H](CC(C)C)C(N)=O)C(C)C`, the figures for the 50% inhibitory concentration (IC50) in experiment [1], in experiment [2] and in experiment [3] were > 1000 nM, > 1000 nM and 431 nM, respectively.

On to `CC1(C)CCC(CN2CCN(c3ccc(C(=O)NS(=O)(=O)c4ccc(NCC5CCOCC5)c([N+](=O)[O-])c4)c(Oc4cnc5[nH]ccc5c4)c3)CC2)=C(c2ccc(Cl)cc2)C1`, for which the concentration for half-maximal inhibition (IC50) in experiment [3] and in experiment [4] was > 1000 nM in each case.

In the case of `CC(=O)N[C@@H](CCS)C(=O)N[C@@H](C)C(=O)N[C@H](C(=O)N[C@@H](CCC(N)=O)C(=O)N[C@@H](CC(C)C)C(=O)N[C@@H](CCCNC(=N)N)C(=O)N[C@@H](CCCNC(=N)N)C(=O)N[C@@H](Cc1ccccc1)C(=O)NCC(=O)N[C@@H](CC(=O)O)C(=O)N[C@@H](CCCCN)C(=O)N[C@@H](CC(C)C)C(=O)N[C@@H](CC(N)=O)C(=O)N[C@@H](Cc1ccccc1)C(=O)N[C@@H](CCCNC(=N)N)C(=O)N[C@@H](CCC(N)=O)C(=O)N[C@@H](CCCCN)C(=O)N[C@@H](CC(C)C)C(=O)N[C@@H](CC(C)C)C(=O)N[C@@H](CC(N)=O)C(N)=O)[C@@H](C)O` (Ac-[hCys]ATQLRRFGDKLNFRQKLLN-NH2), the IC50 is > 1000 nM in experiment [1], > 1000 nM in experiment [2], 83 nM in experiment [3] and 266 nM in experiment [4].

`C=CCCC[C@](C)(NC(=O)[C@H](CC(=O)O)NC(=O)CNC(=O)[C@@H](NC(=O)[C@](C)(CCCC=C)NC(=O)[C@H](CCCNC(=N)N)NC(=O)[C@H](CC(C)C)NC(=O)[C@H](CCC(=O)O)NC(=O)[C@H](CCC(N)=O)NC(=O)[C@H](C)NC(=O)C(CNC(=O)CCl)NC(C)=O)[C@@H](C)CC)C(=O)N[C@@H](Cc1ccccc1)C(=O)N[C@@H](CC(N)=O)C(=O)N[C@@H](C)C(=O)N[C@@H](Cc1ccc(O)cc1)C(=O)N[C@@H](Cc1ccc(O)cc1)C(=O)N[C@@H](C)C(=O)N[C@@H](CCCNC(=N)N)C(=O)N[C@@H](CCCNC(=N)N)C(N)=O` (some centres not stated) [130D11]: the 50% inhibitory concentration (IC50) was determined as 220 nM in experiment [1], 199 nM in experiment [2], 13.9 nM in experiment [3] and 32 nM in experiment [4].

For the compound `CC[C@H](C)[C@H](NC(=O)[C@H](CCCNC(=N)N)NC(=O)[C@H](CCCNC(=N)N)NC(=O)[C@H](CC(C)C)NC(=O)[C@H](CCC(=O)O)NC(=O)[C@H](CCC(N)=O)NC(=O)[C@H](C)NC(=O)[C@@H](NC(=O)[C@H](CNC(=O)CCl)NC(C)=O)[C@@H](C)CC)C(=O)NCC(=O)N[C@@H](CC(=O)O)C(=O)N[C@@H](CCC(=O)O)C(=O)N[C@@H](Cc1ccccc1)C(=O)N[C@@H](CC(N)=O)C(=O)N[C@@H](C)C(=O)N[C@@H](Cc1ccc(O)cc1)C(=O)N[C@@H](Cc1ccc(O)cc1)C(=O)N[C@@H](C)C(=O)N[C@@H](CCCNC(=N)N)C(=O)N[C@@H](CCCNC(=N)N)C(N)=O` [130E7] (Ac-[Dap](ClAc)IAQELRRIGDEFNAYYARR-NH2), the figures for the IC50 in experiment [1], in experiment [2] and in experiment [3] were 46.5 nM, 27 nM and 8.7 nM, respectively. Moreover, the dissociation constant (Kd) in experiment [1] (pH 7.4) worked out at 25.5 nM; in experiment [3] (pH 7.4, 25 °C) it was 2.6 nM.

`CC[C@H](C)[C@H](NC(=O)C(CNC(=O)CCl)NC(C)=O)C(=O)N[C@@H](C)C(=O)N[C@@H](CCC(N)=O)C(=O)N[C@@H](CCC(=O)O)C(=O)N[C@@H](CC(C)C)C(=O)N[C@@H](CCCNC(=N)N)C(=O)N[C@@H](CCCNC(=N)N)C(=O)N[C@H](C(=O)NCC(=O)N[C@@H](CC(=O)O)C(=O)N[C@@H](CCC(=O)O)C(=O)N[C@@H](Cc1ccccc1)C(=O)N[C@@H](CC(N)=O)C(=O)N[C@@H](C)C(=O)N[C@@H](Cc1ccc(O)cc1)C(=O)N[C@@H](Cc1ccc(O)cc1)C(=O)N[C@@H](C)C(=O)N[C@@H](CCCNC(=N)N)C(=O)N[C@@H](CCCNC(=N)N)C(N)=O)[C@@H](C)CC` (some centres not stated) [130E7] (Ac-[ξDap](ClAc)IAQELRRIGDEFNAYYARR-NH2) showed an IC50 in experiment [4] of 23 nM. This compound also registered a Kd in experiment [4] (pH 7.4, 25 °C) of 2 nM.

`CC(=O)NC(CNC(=O)CCl)C(=O)N[C@@H](C)C(=O)N[C@H](C(=O)N[C@@H](CCC(N)=O)C(=O)N[C@@H](CC(C)C)C(=O)N[C@@H](CCCNC(=N)N)C(=O)N[C@@H](CCCNC(=N)N)C(=O)N[C@@H](Cc1ccccc1)C(=O)NCC(=O)N[C@@H](CC(=O)O)C(=O)N[C@@H](CCCCN)C(=O)N[C@@H](CC(C)C)C(=O)N[C@@H](CC(N)=O)C(=O)N[C@@H](Cc1ccccc1)C(=O)N[C@@H](CCCNC(=N)N)C(=O)N[C@@H](CCC(N)=O)C(=O)N[C@@H](CCCCN)C(=O)N[C@@H](CC(C)C)C(=O)N[C@@H](CC(C)C)C(=O)N[C@@H](CC(N)=O)C(N)=O)[C@@H](C)O` (some centres not stated) [λ_hNOXA] (Ac-[ξDap](ClAc)ATQLRRFGDKLNFRQKLLN-NH2) displayed a concentration for half-maximal inhibition (IC50) in experiment [4] of 233 nM.

Consider Ac-CATQLRRFGDKLN-NH2, for which the IC50 was > 1000 nM in experiment [1], > 1000 nM in experiment [2], 15 nM in experiment [3] and > 1000 nM in experiment [4].

In the case of Ac-CATQLRRFGDKLNFRQKLLN-NH2, the IC50 in experiment [1] was > 1000 nM; in experiment [2], > 1000 nM; in experiment [3], 7.5 nM; in experiment [4] it was 228 nM.

By IC50 is commonly meant the midpoint of a concentration-inhibition curve. High values mean weaker potency in that assay, low ones greater potency in that assay. Usually Kd stands for the concentration at which binding is half-saturated.

(Values after BindingDB's records for doi:10.1021/acschembio.6b00962 (University of California Riverside, 2017).)
